Series [1] addresses T1, Tyrosine-protein kinase JAK2 (Homo sapiens, UniProt O60674). Kind of series: Inhibition of human JAK2 at 10 uM using poly(Glu:Tyr)(4:1) as substrate preincubated for 20 mins followed by [gamma33P]ATP addition measured after 120 mins by ion exchange filter paper method relative to control.
In a further series the test system is MCF7. Kind of series: Antiproliferative activity against human MCF7 cells after 72 hrs by MTT assay. The format is functional, cell-based. The following applies: MCF7, 72 h. On the technique in general: Tetrazolium dyes change colour on reduction, which living cells bring about.
The next series is filed under the species Homo sapiens. Kind of series: Selectivity ratio of IC50 for HDAC1 (unknown origin) to IC50 for HDAC6 (unknown origin).
Another series deals with HCT-116. The experiment in a line: Antiproliferative activity against human HCT116 cells after 72 hrs by MTT assay. The format is functional, cell-based. The following applies: HCT-116, 72 h.
Series [2] deals with T1, Tyrosine-protein kinase JAK2. Kind of series: Inhibition of human JAK2 using poly(Glu:Tyr)(4:1) as substrate preincubated for 20 mins followed by [gamma33P]ATP addition measured after 120 mins by ion exchange filter paper method.
In another series the test system is HEL 92.1.7. Kind of series: cells. Format: functional, cell-based. The following applies: Homo sapiens, HEL 92.1.7, 72 h.
A further series has as its system Jurkat. The experiment in a line: Antiproliferative activity against human Jurkat cells after 72 hrs by MTT assay. Format: functional, cell-based.
The next series relates to MDA-MB-231. The experiment in a line: Antiproliferative activity against human MDA-MB-231 cells after 72 hrs by MTT assay. The format is functional, cell-based. The following applies: MDA-MB-231, 72 h.
For a further series, the system named is PC-3. Kind of series: Antiproliferative activity against human PC3 cells after 72 hrs by MTT assay. Format: functional, cell-based. The following applies: PC-3, 72 h.
The target of a further series is Histone deacetylase 1 (Homo sapiens, UniProt Q13547). Kind of series: Inhibition of HDAC1 (unknown origin) using Arg-His-Lys-Lys(Ac) as substrate preincubated with enzyme followed by substrate addition for 2 hrs and measured for 1.5 hrs at 15 mins time interval by fluorescence assay.
The target of series [3] is T2, Protein deacetylase HDAC6 (Homo sapiens, UniProt Q9UBN7).
T2 sequence (Q9UBN7 whole entry): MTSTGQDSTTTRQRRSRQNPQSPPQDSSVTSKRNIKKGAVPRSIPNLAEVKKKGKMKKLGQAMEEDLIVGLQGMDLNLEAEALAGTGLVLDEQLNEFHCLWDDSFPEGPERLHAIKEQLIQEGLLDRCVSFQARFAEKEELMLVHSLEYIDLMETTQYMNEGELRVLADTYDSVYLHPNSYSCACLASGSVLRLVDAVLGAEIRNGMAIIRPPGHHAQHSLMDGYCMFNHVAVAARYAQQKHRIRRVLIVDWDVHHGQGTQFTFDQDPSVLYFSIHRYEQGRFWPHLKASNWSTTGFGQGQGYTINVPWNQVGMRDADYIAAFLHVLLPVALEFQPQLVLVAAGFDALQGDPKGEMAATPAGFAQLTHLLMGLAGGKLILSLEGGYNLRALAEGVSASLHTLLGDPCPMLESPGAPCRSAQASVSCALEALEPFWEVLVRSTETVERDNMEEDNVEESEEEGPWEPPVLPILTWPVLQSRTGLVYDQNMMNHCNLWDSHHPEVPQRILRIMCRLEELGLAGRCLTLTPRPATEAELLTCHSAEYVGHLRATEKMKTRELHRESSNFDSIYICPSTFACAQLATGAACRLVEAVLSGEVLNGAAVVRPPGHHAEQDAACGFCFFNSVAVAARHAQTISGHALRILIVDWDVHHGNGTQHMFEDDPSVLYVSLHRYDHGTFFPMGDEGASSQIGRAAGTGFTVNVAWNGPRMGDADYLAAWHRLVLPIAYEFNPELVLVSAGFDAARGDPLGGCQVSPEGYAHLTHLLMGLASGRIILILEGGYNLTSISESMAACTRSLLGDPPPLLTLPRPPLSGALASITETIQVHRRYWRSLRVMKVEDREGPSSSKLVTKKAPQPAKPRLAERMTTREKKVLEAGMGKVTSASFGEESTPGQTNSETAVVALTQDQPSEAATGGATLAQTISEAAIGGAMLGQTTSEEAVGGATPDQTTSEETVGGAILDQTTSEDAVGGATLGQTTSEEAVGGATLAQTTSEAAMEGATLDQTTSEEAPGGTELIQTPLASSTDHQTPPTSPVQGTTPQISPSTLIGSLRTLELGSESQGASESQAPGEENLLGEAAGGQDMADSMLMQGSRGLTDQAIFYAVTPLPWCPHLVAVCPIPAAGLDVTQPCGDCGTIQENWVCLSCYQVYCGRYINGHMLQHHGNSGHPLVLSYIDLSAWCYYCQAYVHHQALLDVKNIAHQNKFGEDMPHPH
Kind of series: Inhibition of HDAC6 (unknown origin) using Arg-His-Lys-Lys(Ac) as substrate preincubated with enzyme followed by substrate addition for 2 hrs and measured for 1.5 hrs at 15 mins time interval by fluorescence assay.

Series [4] can be described thus: Selectivity index, ratio of CC50 for human AC10 cells to IC50 for human MCF7 cells. Format: toxicity. The following applies: AC10 cells (CC50) and MCF7 cells (IC50).
Series [5] can be described thus: Antiproliferative activity against mouse TAMH cells after 72 hrs by MTT assay. Format: cell-based.
A short description of series [6]: Selectivity index, ratio of CC50 for mouse TAMH cells to IC50 for human HCT116 cells. Format: toxicity. The following applies: TAMH cells (CC50) and HCT116 cells (IC50).
Series [7] in a line: Selectivity index, ratio of CC50 for mouse TAMH cells to IC50 for human Jurkat cells. The following applies: TAMH cells (CC50) and Jurkat cells (IC50). Format: toxicity.
A short description of series [8]: Selectivity index, ratio of CC50 for mouse TAMH cells to IC50 for human PC3 cells. The format is toxicity. The following applies: TAMH cells (CC50) and PC3 cells (IC50).
Series [9] in a line: Selectivity index, ratio of CC50 for human AC10 cells to IC50 for human XG6 cells. Format: toxicity. The following applies: AC10 cells (CC50) and XG6 cells (IC50).
Series [10] in a line: Selectivity index, ratio of CC50 for human AC10 cells to IC50 for human HCT116 cells. The format is toxicity. The following applies: AC10 cells (CC50) and HCT116 cells (IC50).
Series [11] can be described thus: Antiproliferative activity against human XG6 cells after 72 hrs by MTT assay. The following applies: XG6, 72 h. Format: functional, cell-based.
Another series has as its system KMS-12-BM. Kind of series: Antiproliferative activity against human KMS-12-BM cells after 72 hrs by MTT assay. The format is functional, cell-based.
Series [12] in a line: Selectivity index, ratio of CC50 for mouse TAMH cells to IC50 for human HEL 92.1.7 cells. The format is toxicity. The following applies: TAMH cells (CC50) and HEL 92.1.7 cells (IC50).
Series [13] is described as follows: Selectivity index, ratio of CC50 for human AC10 cells to IC50 for human Jurkat cells. The format is toxicity. The following applies: AC10 cells (CC50) and Jurkat cells (IC50).
Series [14] is described as follows: Selectivity index, ratio of CC50 for human AC10 cells to IC50 for human KMS-12-BM cells. The format is toxicity. The following applies: AC10 cells (CC50) and KMS-12-BM cells (IC50).
Series [15] in a line: Selectivity index, ratio of CC50 for human AC10 cells to IC50 for human MDA-MB-231 cells. The format is toxicity. The following applies: AC10 cells (CC50) and MDA-MB-231 cells (IC50).
The nature of series [16]: Selectivity index, ratio of CC50 for mouse TAMH cells to IC50 for human MCF7 cells. The following applies: TAMH cells (CC50) and MCF7 cells (IC50). The format is toxicity.
Series [17] can be described thus: Selectivity index, ratio of CC50 for human AC10 cells to IC50 for human HEL 92.1.7 cells. The following applies: AC10 cells (CC50) and HEL 92.1.7 cells (IC50). Format: toxicity.
A short description of series [18]: Selectivity index, ratio of CC50 for mouse TAMH cells to IC50 for human XG6 cells. The following applies: TAMH cells (CC50) and XG6 cells (IC50). The format is toxicity.
Series [19] is described as follows: Selectivity index, ratio of CC50 for mouse TAMH cells to IC50 for human MDA-MB-231 cells. Format: toxicity. The following applies: TAMH cells (CC50) and MDA-MB-231 cells (IC50).
Series [20] can be described thus: Selectivity index, ratio of CC50 for human AC10 cells to IC50 for human PC3 cells. The format is toxicity. The following applies: AC10 cells (CC50) and PC3 cells (IC50).
Series [21] is described as follows: Selectivity index, ratio of CC50 for mouse TAMH cells to IC50 for human KMS-12-BM cells. The format is toxicity. The following applies: TAMH cells (CC50) and KMS-12-BM cells (IC50).
Series [22] is described as follows: Antiproliferative activity against human AC10 cells after 72 hrs by MTT assay. Format: cell-based.

Structures are written as SMILES. pIC50: −log10 of the molar value. Bounds are passed on as bounds.

Chain of Histone deacetylase 1 (Q13547 whole entry): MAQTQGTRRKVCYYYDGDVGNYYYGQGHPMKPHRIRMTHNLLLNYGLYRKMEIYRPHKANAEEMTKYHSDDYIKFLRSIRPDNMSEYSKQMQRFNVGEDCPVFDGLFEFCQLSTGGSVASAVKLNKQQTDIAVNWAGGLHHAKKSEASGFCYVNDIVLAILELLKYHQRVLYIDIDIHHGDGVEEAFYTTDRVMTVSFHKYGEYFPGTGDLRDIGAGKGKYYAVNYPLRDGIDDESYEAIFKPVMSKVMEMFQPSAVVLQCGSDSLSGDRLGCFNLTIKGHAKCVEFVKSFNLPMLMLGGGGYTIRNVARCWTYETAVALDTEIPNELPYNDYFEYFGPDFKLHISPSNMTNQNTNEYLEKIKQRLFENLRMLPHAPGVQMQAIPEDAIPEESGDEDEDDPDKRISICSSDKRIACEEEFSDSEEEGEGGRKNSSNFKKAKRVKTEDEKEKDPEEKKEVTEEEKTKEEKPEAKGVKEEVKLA
T1 sequence (O60674 whole entry): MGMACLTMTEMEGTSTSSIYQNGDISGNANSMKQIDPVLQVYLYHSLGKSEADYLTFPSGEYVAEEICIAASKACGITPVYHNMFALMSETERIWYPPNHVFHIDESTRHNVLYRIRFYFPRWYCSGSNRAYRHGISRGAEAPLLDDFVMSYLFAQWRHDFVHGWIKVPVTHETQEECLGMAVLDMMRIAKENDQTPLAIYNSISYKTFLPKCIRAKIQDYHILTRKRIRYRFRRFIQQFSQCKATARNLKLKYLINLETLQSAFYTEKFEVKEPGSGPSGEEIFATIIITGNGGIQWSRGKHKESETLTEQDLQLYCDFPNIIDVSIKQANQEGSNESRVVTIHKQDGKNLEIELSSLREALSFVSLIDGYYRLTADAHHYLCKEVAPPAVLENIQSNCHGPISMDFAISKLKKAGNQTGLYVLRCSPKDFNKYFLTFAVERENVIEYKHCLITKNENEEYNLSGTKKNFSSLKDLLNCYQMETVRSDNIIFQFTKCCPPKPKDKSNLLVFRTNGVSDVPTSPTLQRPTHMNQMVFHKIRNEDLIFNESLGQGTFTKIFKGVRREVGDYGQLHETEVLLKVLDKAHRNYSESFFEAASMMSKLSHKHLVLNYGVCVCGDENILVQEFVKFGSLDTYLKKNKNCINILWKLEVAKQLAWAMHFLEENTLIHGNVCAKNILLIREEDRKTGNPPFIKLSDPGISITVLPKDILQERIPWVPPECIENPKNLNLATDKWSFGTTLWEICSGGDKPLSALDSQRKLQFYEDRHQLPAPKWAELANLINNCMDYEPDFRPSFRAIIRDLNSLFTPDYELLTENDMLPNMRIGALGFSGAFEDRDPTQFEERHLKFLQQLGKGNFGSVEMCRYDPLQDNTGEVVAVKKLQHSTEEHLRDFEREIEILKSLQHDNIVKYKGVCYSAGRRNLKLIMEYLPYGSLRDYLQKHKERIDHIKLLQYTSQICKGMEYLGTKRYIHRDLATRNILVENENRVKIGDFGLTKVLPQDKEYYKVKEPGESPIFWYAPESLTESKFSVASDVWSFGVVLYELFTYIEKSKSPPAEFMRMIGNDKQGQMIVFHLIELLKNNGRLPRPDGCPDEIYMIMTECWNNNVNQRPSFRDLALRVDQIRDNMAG
Description for HEL 92.1.7: Antiproliferative activity against human HEL 92.1.7 cells after 72 hrs by MTT assay

As a reminder, the inhibition is how much of the control response was suppressed. For the molecule `CC(=O)Nc1ccc(-c2ccnc(NCCc3ccccc3)n2)cc1`, the inhibition in series [1] came to 6.22%.

What is called pIC50 is the IC50 on a negative log10 scale, so that one unit is a factor of ten. Low values mean a large IC50, high ones a small IC50. As for `CC(=O)Nc1ccc(-c2ccnc(Nc3cccc(NC(=O)CCCCC(=O)NO)c3)n2)cc1`, the negative logarithm of the IC50 (pIC50) in the series with MCF7 is 4.57; in the series on HCT-116, 4.47; in series [2] it was 8.59; with HEL 92.1.7, under 5.00; in the series with Jurkat, under 5.00; with MDA-MB-231, 4.84. Moreover, the values for the pIC50 (in the series with PC-3; at Histone deacetylase 1; in series [3]) were 4.73, 6.42 and 8.34, respectively. In the series filed under Homo sapiens, the Ratio IC50 is 100.

What is called CC50 is the concentration that lowers cell viability or growth by half. Read a low CC50 as harm at low concentration. `CC(=O)Nc1ccc(-c2ccnc(Nc3cccc(OCCCCCCC(=O)NO)c3)n2)cc1`: the selectivity ratio was found to be 1.24 in [4]; 10.6 in series [6]; 6.65 in [7]; 3.71 in series [8]; 0.64 in series [9]; 4.53 in series [10]. Besides, the selectivity ratio in series [12] is 7.24; in [13] it was 2.92; in series [14] it was 8.54; in series [15], 1.7; in series [16], 2.9; in [17] it was 3.08. For the same molecule, the selectivity ratio in series [18] stood at 1.5; in series [19], 3.99; in [20], 1.58; in series [21], 20.1. In addition, the CC50 at 72 h worked out at 7020 nM in series [5] and 2990 nM in [22]. For the same molecule, the pIC50 in the series with MCF7 is 5.62; in the series on HCT-116 it was 6.18; in [11] it was 5.33; in the series with KMS-12-BM it was 6.46; in series [2] it was 8.44; with HEL 92.1.7 it was 6.01. The negative logarithm of the IC50 (pIC50) was 5.97 in the series with Jurkat; 5.75 in the series on MDA-MB-231; 5.72 in the series on PC-3; 7.08 at Histone deacetylase 1; 8.74 in series [3].

In the case of `CC(=O)Nc1ccc(-c2ccnc(Nc3ccc(OCCCCCCC(=O)NO)cc3)n2)cc1`, the selectivity ratio in series [4] was 2.95; in series [6], 3.7; in series [7], 2.07; in series [8], 2.49; in series [9] it was 1.15; in [10], 2.41. For the same molecule, the selectivity ratio in series [12] amounted to 2.42; in series [13], 0.89; in series [14], 23.9; in series [15], 1.53; in [16], 4.52; in series [17], 1.58. In addition, the selectivity ratio is 1.76 in series [18], 2.35 in [19], 1.63 in series [20] and 36.6 in series [21]. The CC50 at 72 h in series [5] stood at 3660 nM; in series [22], 2390 nM. Moreover, the pIC50 with MCF7 was 6.09; in the series on HCT-116, 6.00; in series [11], 5.68; with KMS-12-BM it was 7.00; in [2], 7.64; with HEL 92.1.7, 5.82. In addition, the negative-log IC50 (pIC50) with Jurkat is 5.75; in the series on MDA-MB-231, 5.81; with PC-3 it was 5.83; against Histone deacetylase 1 it was 6.84; in series [3] it was 8.52.

In [1], `CC(=O)Nc1ccc(-c2ccnc(NCc3ccccc3)n2)cc1` registered an inhibition of 3.85%.

On to `CC(=O)Nc1ccc(-c2ccnc(Nc3cccc(OCCCCCCCC(=O)NO)c3)n2)cc1`, for which the selectivity ratio is over 82 in [4]; 1.83 in [6]; under 0.28 in [7]; 1.69 in [8]; over 13.9 in series [9]; over 66.2 in series [10]. Besides, the selectivity ratio in series [12] is 0.83; in [13] it was 3; in series [14], over 147; in series [15], over 27.7; in [16], 2.27; in series [17], over 30. For the same molecule, the selectivity ratio in series [18] was 0.38; in series [19], 0.77; in series [20], over 61; in [21] it was 4.07. Further, the CC50 at 72 h was 2770 nM in [5] and over 100000 nM in series [22]. Further, the pIC50 is 5.91 in the series on MCF7; 5.82 with HCT-116; 5.14 in [11]; 6.17 in the series with KMS-12-BM; 7.77 in series [2]; 5.48 in the series on HEL 92.1.7. Moreover, the pIC50 in the series on Jurkat is under 5.00; in the series on MDA-MB-231, 5.44; in the series on PC-3, 5.79; against Histone deacetylase 1, 5.98; in series [3], 8.17.

Molecule `CC(=O)Nc1ccc(-c2ccnc(Nc3ccccc3)n2)cc1` gave a pIC50 in series [2] of 7.56. The inhibition in series [1] is 96.4%.
